From patent US11718605B2, “Heterocyclic compounds as immunomodulators” (Incyte Corporation, priority 2016, dated 2023)

target: PD-1/PD-L1 protein/protein interaction (Homo sapiens (Human), UniProt Q9NZQ7); assay: PD-1/PD-L1 Homogeneous Time-Resolved Fluorescence (HTRF) Binding Assay; conditions: recombinant human PD-L1 (19-238) His-tag 10 nM, human PD-1 (25-167) Fc tag 3 nM; 25° C., PBS pH 7.4
Method: Example A. PD-1/PD-L1 Homogeneous Time-Resolved Fluorescence (HTRF) Binding Assay
The assays were conducted in a standard black 384-well polystyrene plate with a final volume of 20 μL. Inhibitors were first serially diluted in DMSO and then added to the plate wells before the addition of other reaction components. The final concentration of DMSO in the assay was 1%. The assays were carried out at 25° C. in the PBS buffer (pH 7.4) with 0.05% Tween-20 and 0.1% BSA. Recombinant human PD-L1 protein (19-238) with a His-tag at the C-terminus was purchased from AcroBiosystems (PD1-H5229). Recombinant human PD-1 protein (25-167) with Fc tag at the C-terminus was also purchased from AcroBiosystems (PD1-H5257). PD-L1 and PD-1 proteins were diluted in the assay buffer and 10 μL was added to the plate well. Plates were centrifuged and proteins were preincubated with inhibitors for 40 minutes. The incubation was followed by the addition of 10 μL of HTRF detection buffer supplemented with Europium cryptate-labeled anti-human IgG (PerkinElmer-AD0212) specific for Fc and anti-His antibody conjugated to SureLight®-Allophycocyanin (APC, PerkinElmer-AD0059H). After centrifugation, the plate was incubated at 25° C. for 60 min. before reading on a PHERAstar FS plate reader (665 nm/620 nm ratio). Final concentrations in the assay were—3 nM PD1, 10 nM PD-L1, 1 nM europium anti-human IgG and 20 nM anti-His-Allophycocyanin. IC50 determination was performed by fitting the curve of percent control activity versus the log of the inhibitor concentration using the GraphPad Prism 5.0 software.

Chain of PD-1/PD-L1 protein/protein interaction (Q9NZQ7 19-238): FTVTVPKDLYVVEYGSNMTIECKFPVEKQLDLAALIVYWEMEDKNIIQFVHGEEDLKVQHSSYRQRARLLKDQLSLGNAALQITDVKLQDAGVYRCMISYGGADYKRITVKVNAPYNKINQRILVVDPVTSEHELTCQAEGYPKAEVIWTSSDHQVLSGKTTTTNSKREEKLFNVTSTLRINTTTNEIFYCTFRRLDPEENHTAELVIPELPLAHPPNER

Row | IC50 [nM] | Compound
1 | ≤ 100 | Cc1c(NC(=O)c2cc(CNCCO)cn(C)c2=O)cccc1-c1ccccc1 [Example 2, 5-{[(2-hydroxyethyl)amino]methyl}-1-methyl-N-(2-methylbiphenyl-3-yl)-2-oxo-1,2-dihydropyridine-3-carboxamide]
2 | ≤ 100 | Cc1c(NC(=O)c2cc(CNCCO)cn(C)c2=O)cccc1-c1cccc2c1cnn2C [Example 11, 5-{[(2-hydroxyethyl)amino]methyl}-1-methyl-N-[2-methyl-3-(1-methyl-1H-indazol-4-yl)phenyl]-2-oxo-1,2-dihydropyridine-3-carboxamide]
3 | ≤ 100 | Cn1cc(CNCCO)cc(C(=O)Nc2cccc(-c3ccccc3F)c2C#N)c1=O [Example 6, N-(2-cyano-2′-fluorobiphenyl-3-yl)-5-{[(2-hydroxyethyl)amino]methyl}-1-methyl-2-oxo-1,2-dihydropyridine-3-carboxamide]
4 | 100 to 500 | Cn1cc(CNCCO)cc(C(=O)Nc2cccc(C3CCCCC3)c2C#N)c1=O [Example 3, N-(2-cyano-3-cyclohexylphenyl)-5-{[(2-hydroxyethyl)amino]methyl}-1-methyl-2-oxo-1,2-dihydropyridine-3-carboxamide]
5 | ≤ 100 | Cn1cc(CNCCO)cc(C(=O)Nc2cccc(-c3ccc4c(c3)OCCO4)c2C#N)c1=O [Example 4, N-[2-cyano-3-(2,3-dihydro-1,4-benzodioxin-6-yl)phenyl]-5-{[(2-hydroxyethyl)amino]methyl}-1-methyl-2-oxo-1,2-dihydropyridine-3-carboxamide]
6 | 100 to 500 | CCn1cc(CNCCO)cc(C(=O)Nc2cccc(-c3ccccc3)c2C)c1=O [Example 10, 1-ethyl-5-{[(2-hydroxyethyl)amino]methyl}-N-(2-methylbiphenyl-3-yl)-2-oxo-1,2-dihydropyridine-3-carboxamide]
7 | 500 to 10000 | CCn1cc(CN2CCCC[C@H]2C(=O)O)cc(C(=O)Nc2cccc(-c3ccccc3)c2C)c1=O [Example 9, (2S)-1-[(1-ethyl-5-{[(2-methylbiphenyl-3-yl)amino]carbonyl}-6-oxo-1,6-dihydropyridin-3-yl)methyl]piperidine-2-carboxylic acid]
8 | ≤ 100 | Cc1c(NC(=O)c2cc(CNCCO)cn(C)c2=O)cccc1-c1ccc2c(c1)OCCO2 [Example 13, N-[3-(2,3-dihydro-1,4-benzodioxin-6-yl)-2-methylphenyl]-5-{[(2-hydroxyethyl)amino]methyl}-1-methyl-2-oxo-1,2-dihydropyridine-3-carboxamide]
9 | ≤ 100 | COc1cccc(-c2cccc(NC(=O)c3cc(CNCCO)cn(C)c3=O)c2C)c1F [Example 12, N-(2′-fluoro-3′-methoxy-2-methylbiphenyl-3-yl)-5-((2-hydroxyethylamino)methyl)-1-methyl-2-oxo-1,2-dihydropyridine-3-carboxamide]
10 | ≤ 100 | Cn1cc(CNCCO)cc(C(=O)Nc2cccc(-c3cccc4c3cnn4C)c2C#N)c1=O [Example 8, N-(2-cyano-3-(1-methyl-1H-indazol-4-yl)phenyl)-5-((2-hydroxyethylamino)methyl)-1-methyl-2-oxo-1,2-dihydropyridine-3-carboxamide]
11 | 100 to 500 | Cn1cc(CNCCO)cc(C(=O)Nc2cccc(-c3ccccc3)c2C#N)c1=O [Example 7, N-(2-cyanobiphenyl-3-yl)-5-{[(2-hydroxyethyl)amino]methyl}-1-methyl-2-oxo-1,2-dihydropyridine-3-carboxamide]
12 | ≤ 100 | COc1cccc(-c2cccc(NC(=O)c3cc(CNCCO)cn(C)c3=O)c2C#N)c1 [Example 5, N-(2-cyano-3′-methoxybiphenyl-3-yl)-5-{[(2-hydroxyethyl)amino]methyl}-1-methyl-2-oxo-1,2-dihydropyridine-3-carboxamide]
13 | ≤ 100 | Cc1c(NC(=O)c2cc(CN3CCCC[C@H]3C(=O)O)cn(C)c2=O)cccc1-c1ccccc1 [Example 1, (2S)-1-[(1-methyl-5-{[(2-methylbiphenyl-3-yl)amino]carbonyl}-6-oxo-1,6-dihydropyridin-3-yl)methyl]piperidine-2-carboxylic acid]
